In US10988477B2 (Merck Patent GmbH, priority 2018, dated 2021) one finds IC50 and Ki data, which are given here for 27 compounds.

In test [1] the target is intracellular GCN2 (phosphorylation of the GCN2 substrate eIF2α) (Homo sapiens, UniProt Q9P2K8). Description: GCN2 cellular inhibition assay (AlphaScreen SureFire P-eIF2α Ser51, borrelidin-treated U2OS cells). Type of test: cell-based. The settings on record: compounds of Formula II; biomarker assay, phosphorylated eIF2α Ser51 in borrelidin-treated U2OS cells. Put shortly:
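U2OS cells adhered overnight, then treated with compounds (4-fold serial dilutions from 40 μM final) plus borrelidin 10 μM final for 1 h at 37 °C. Lysate eIF2α Ser51 phosphorylation measured by AlphaScreen SureFire. Percent inhibition calculated relative to borrelidin-only wells.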

Another test has as its target GCN2 kinase (Homo sapiens, UniProt Q9P2K8). Description: GCN2 enzyme inhibition assay (Transcreener ADP2 fluorescence polarization). Format: biochemical. The settings on record: compounds of Formula II; 280 μM ATP, 4 nM GCN2 kinase. Put shortly:
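Run at 25 °C in 25 mM Tris-HCl pH 7.5, 50 mM NaCl, 10 mM MgCl2, 1 mM DTT with 4 nM GCN2, 280 μM ATP and 200 μM (RS)7 peptide; compound (0–8 μM final) preincubated 10 min, reaction 1 h. ADP read by antibody/tracer FP; IC50 and Ki(app) from tight-binding fit.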

GCN2 kinase, sequence (Q9P2K8 whole entry): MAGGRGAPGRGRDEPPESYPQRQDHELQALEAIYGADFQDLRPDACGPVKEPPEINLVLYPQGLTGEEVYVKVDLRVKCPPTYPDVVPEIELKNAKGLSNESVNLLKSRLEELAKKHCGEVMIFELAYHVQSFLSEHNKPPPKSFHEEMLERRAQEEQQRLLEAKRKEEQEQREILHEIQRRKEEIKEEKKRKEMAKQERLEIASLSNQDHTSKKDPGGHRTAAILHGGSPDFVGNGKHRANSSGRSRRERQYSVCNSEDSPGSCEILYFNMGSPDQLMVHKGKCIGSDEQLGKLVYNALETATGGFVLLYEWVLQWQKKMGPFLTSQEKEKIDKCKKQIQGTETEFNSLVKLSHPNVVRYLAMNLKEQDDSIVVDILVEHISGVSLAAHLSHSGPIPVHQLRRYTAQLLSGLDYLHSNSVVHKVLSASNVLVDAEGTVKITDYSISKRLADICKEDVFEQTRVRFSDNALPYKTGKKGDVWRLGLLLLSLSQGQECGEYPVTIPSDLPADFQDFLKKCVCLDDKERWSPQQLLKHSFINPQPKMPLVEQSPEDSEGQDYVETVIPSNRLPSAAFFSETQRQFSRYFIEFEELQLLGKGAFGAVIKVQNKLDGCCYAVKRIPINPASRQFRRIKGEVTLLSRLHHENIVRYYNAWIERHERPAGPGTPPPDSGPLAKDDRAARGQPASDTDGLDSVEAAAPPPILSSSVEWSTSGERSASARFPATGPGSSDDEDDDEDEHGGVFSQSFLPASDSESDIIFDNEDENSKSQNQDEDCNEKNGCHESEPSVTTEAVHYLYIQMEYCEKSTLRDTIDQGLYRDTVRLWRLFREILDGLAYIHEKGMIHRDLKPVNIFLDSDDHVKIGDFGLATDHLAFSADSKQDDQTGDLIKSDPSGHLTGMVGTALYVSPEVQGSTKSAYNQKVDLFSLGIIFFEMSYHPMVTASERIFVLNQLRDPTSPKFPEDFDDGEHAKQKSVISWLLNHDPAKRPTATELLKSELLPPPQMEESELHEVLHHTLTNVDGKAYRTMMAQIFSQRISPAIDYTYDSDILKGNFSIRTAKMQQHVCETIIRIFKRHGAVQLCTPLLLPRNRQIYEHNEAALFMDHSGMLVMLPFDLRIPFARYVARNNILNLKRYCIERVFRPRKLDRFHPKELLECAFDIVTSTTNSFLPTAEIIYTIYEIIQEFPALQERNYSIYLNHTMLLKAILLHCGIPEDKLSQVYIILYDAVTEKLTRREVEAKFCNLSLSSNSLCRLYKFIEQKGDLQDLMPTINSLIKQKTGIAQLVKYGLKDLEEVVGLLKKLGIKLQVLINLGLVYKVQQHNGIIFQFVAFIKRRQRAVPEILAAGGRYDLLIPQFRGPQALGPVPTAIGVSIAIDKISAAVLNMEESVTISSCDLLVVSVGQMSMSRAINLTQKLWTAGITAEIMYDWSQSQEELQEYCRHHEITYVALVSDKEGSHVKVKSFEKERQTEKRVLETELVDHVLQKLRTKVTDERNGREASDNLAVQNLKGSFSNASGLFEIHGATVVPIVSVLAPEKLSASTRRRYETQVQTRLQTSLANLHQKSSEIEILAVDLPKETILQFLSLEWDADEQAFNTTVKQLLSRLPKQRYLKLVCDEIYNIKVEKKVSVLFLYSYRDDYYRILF
intracellular GCN2 (phosphorylation of the GCN2 substrate eIF2α), sequence (Q9P2K8 whole entry): as above

On to `C[C@H]1CN(c2cc(-c3cnc4ccc(C(F)F)nn34)ncn2)C[C@@H](CNS(C)(=O)=O)C1(F)F` [II-36, N-[[(3S,5S)-1-[6-[6-(Difluoromethyl)imidazo[1,2-b]pyridazin-3-yl]pyrimidin-4-yl]-4,4-difluoro-5-methyl-3-piperidyl]methyl]methanesulfonamide], for which the IC50 in test [1] is less than 0.5 µM. The same compound had an inhibition constant (Ki) at GCN2 kinase of less than 0.01 µM.
For the compound `CS(=O)(=O)N1CCN2CCN(c3cc(-c4cnc5ccc(C(F)F)nn45)ccn3)CC2C1` (stereo not drawn) [II-37, 2-(4-(6-(Difluoromethyl)imidazo[1,2-b]pyridazin-3-yl)pyridin-2-yl)-8-(methylsulfonyl)octahydro-1H-pyrazino[1,2-a]pyrazine], in test [1], the IC50 lay in the range of 0.5 to 5 µM. For the same compound, the inhibition constant Ki at GCN2 kinase is 0.01 to 1 µM.
Regarding `FC(F)c1ccc2ncc(-c3ccnc(N4CCN5CCNCC5C4)c3)n2n1` (stereo not drawn) [II-38, 2-(4-(6-(Difluoromethyl)imidazo[1,2-b]pyridazin-3-yl)pyridin-2-yl)octahydro-1H-pyrazino[1,2-a]pyrazine], in test [1], the IC50 is more than 5 µM. Moreover, the Ki at GCN2 kinase lay in the range of 0.01 to 1 µM.
The matching figures for `CS(=O)(=O)NCC1CC(O)CN(c2cc(-c3cnc4ccc(C(F)F)nn34)ccn2)C1` (stereo not drawn) [II-39, N-((1-(4-(6-(Difluoromethyl)imidazo[1,2-b]pyridazin-3-yl)pyridin-2-yl)-5-hydroxypiperidin-3-yl)methyl)methanesulfonamide]: 0.5 to 5 µM and 0.01 to 1 µM.
With `CS(=O)(=O)NCC1CC(O)CN(c2cc(-c3cnc4ccc(C(F)F)nn34)ccn2)C1` (stereo not drawn) [II-40, N-((1-(4-(6-(Difluoromethyl)imidazo[1,2-b]pyridazin-3-yl)pyridin-2-yl)-5-hydroxypiperidin-3-yl)methyl)methanesulfonamide], the 50% inhibitory concentration (IC50) in test [1] was less than 0.5 µM. This compound also returned an inhibition constant (Ki) on GCN2 kinase of less than 0.01 µM.
The matching figures for `Cn1cc(C(=O)N2CCCC(c3cc(-c4cnc5ccc(C(F)F)nn45)ncn3)C2)cn1` (stereo not drawn) [II-41, (3-(6-(6-(Difluoromethyl)imidazo[1,2-b]pyridazin-3-yl)pyrimidin-4-yl)piperidin-1-yl)(1-methyl-1H-pyrazol-4-yl)methanone]: 0.5 to 5 µM and 0.01 to 1 µM.
In test [1], `CS(=O)(=O)N1CCC2(CCN2c2cncc(-c3cnc4ccc(C(F)F)nn34)c2)CC1` [II-42, 6-(Difluoromethyl)-3-(5-(7-(methylsulfonyl)-1,7-diazaspiro[3.5]nonan-1-yl)pyridin-3-yl)imidazo[1,2-b]pyridazine] had a half-inhibitory concentration (IC50) of more than 5 µM. Besides, at GCN2 kinase, the Ki lay within 0.01 to 1 µM.
In test [1], `Cc1ncc(-c2cnc3ccc(C(F)F)nn23)cc1N1CCC12CCN(S(C)(=O)=O)CC2` [II-44, 6-(Difluoromethyl)-3-(6-methyl-5-(7-(methylsulfonyl)-1,7-diazaspiro[3.5]nonan-1-yl)pyridin-3-yl)imidazo[1,2-b]pyridazine] returned an IC50 of 0.5 to 5 µM. The inhibition constant Ki at GCN2 kinase fell in the range of 0.01 to 1 µM.
Take `CC1CN(c2cc(-c3cnc4ccc(C(F)F)nn34)ncn2)CC(CNS(C)(=O)=O)C1(F)F` (stereo not drawn) [II-45, N-((1-(6-(6-(Difluoromethyl)imidazo[1,2-b]pyridazin-3-yl)pyrimidin-4-yl)-4,4-difluoro-5-methylpiperidin-3-yl)methyl)methanesulfonamide]: the IC50 in test [1] is less than 0.5 µM. Also, the inhibition constant (Ki) on GCN2 kinase is less than 0.01 µM.
The matching figures for `O=C1NCC2CN(c3cc(-c4cnc5ccc(C(F)F)nn45)ncn3)CCN12` (stereo not drawn) [II-46, 7-(6-(6-(Difluoromethyl)imidazo[1,2-b]pyridazin-3-yl)pyrimidin-4-yl)hexahydroimidazo[1,5-a]pyrazin-3(2H)-one]: more than 5 µM and 0.01 to 1 µM.
The matching figures for `O=C1OC[C@@H]2CN(c3cc(-c4cnc5ccc(C(F)F)nn45)ncn3)CCN12` [II-47, (S)-7-(6-(6-(Difluoromethyl)imidazo[1,2-b]pyridazin-3-yl)pyrimidin-4-yl)hexahydro-3H-oxazolo[3,4-a]pyrazin-3-one]: 0.5 to 5 µM and 0.01 to 1 µM.
Consider `CS(=O)(=O)CCN1CCCC(c2cc(-c3cnc4ccc(C(F)F)nn34)ncn2)C1` (stereo not drawn) [II-48, 6-(Difluoromethyl)-3-(6-(1-(2-(methylsulfonyl)ethyl)piperidin-3-yl)pyrimidin-4-yl)imidazo[1,2-b]pyridazine], for which the concentration for half-maximal inhibition (IC50) in test [1] was more than 5 µM. This compound also returned an inhibitory constant (Ki) at GCN2 kinase of 0.01 to 1 µM.
`Cc1ncc(-c2cnc3ccc(C(F)F)nn23)cc1N1CCCC(CNS(C)(=O)=O)C1` (stereo not drawn) [II-49, N-((1-(5-(6-(Difluoromethyl)imidazo[1,2-b]pyridazin-3-yl)-2-methylpyridin-3-yl)piperidin-3-yl)methyl)methanesulfonamide] gave an IC50 in test [1] of 0.5 to 5 µM. The compound also returned an inhibition constant (Ki) on GCN2 kinase of 0.01 to 1 µM.
In turn, `NC(=O)C1CN(c2cc(-c3cnc4ccc(C(F)F)nn34)ncn2)CCO1` (stereo not drawn) [II-50, 4-(6-(6-(Difluoromethyl)imidazo[1,2-b]pyridazin-3-yl)pyrimidin-4-yl)morpholine-2-carboxamide] registered an IC50 in test [1] of 0.5 to 5 µM. The compound also came in with a Ki at GCN2 kinase of 0.01 to 1 µM.
In test [1], `O=C1NCCC12CCCN(c1cc(-c3cnc4ccc(C(F)F)nn34)ncn1)C2` (stereo not drawn) [II-51, 7-(6-(6-(Difluoromethyl)imidazo[1,2-b]pyridazin-3-yl)pyrimidin-4-yl)-2,7-diazaspiro[4.5]decan-1-one] had an IC50 of 0.5 to 5 µM. Moreover, the Ki on GCN2 kinase was 0.01 to 1 µM.
`O=C1CC2(CCN(c3cc(-c4cnc5ccc(C(F)F)nn45)ncn3)CC2)N1` [II-52, 7-(6-(6-(Difluoromethyl)imidazo[1,2-b]pyridazin-3-yl)pyrimidin-4-yl)-1,7-diazaspiro[3.5]nonan-2-one]: the IC50 in test [1] is more than 5 µM. For the same compound, the inhibitory constant (Ki) at GCN2 kinase lay within 0.01 to 1 µM.
In turn, `Cc1cnc(-c2cnc3ccc(C(F)F)nn23)cc1N1CCCC(CNS(C)(=O)=O)C1` (stereo not drawn) [II-53, N-((1-(2-(6-(Difluoromethyl)imidazo[1,2-b]pyridazin-3-yl)-5-methylpyridin-4-yl)piperidin-3-yl)methyl)methanesulfonamide] gave an IC50 in test [1] of 0.5 to 5 µM. This compound also gave a Ki on GCN2 kinase of less than 0.01 µM.
The matching figures for `CS(=O)(=O)N1CCC2(CCN(c3cc(-c4cnc5ccc(C(F)F)nn45)ncn3)C2)CC1` [II-54, 2-(6-(6-(Difluoromethyl)imidazo[1,2-b]pyridazin-3-yl)pyrimidin-4-yl)-8-(methylsulfonyl)-2,8-diazaspiro[4.5]decane]: 0.5 to 5 µM and 0.01 to 1 µM.
On to `CC(=O)N1CC2(C1)CN(c1cc(-c3cnc4ccc(C(F)F)nn34)cc(N3CCCC(CNS(C)(=O)=O)C3)n1)C2` (stereo not drawn) [II-55, N-((1-(6-(6-Acetyl-2,6-diazaspiro[3.3]heptan-2-yl)-4-(6-(difluoromethyl)imidazo[1,2-b]pyridazin-3-yl)pyridin-2-yl)piperidin-3-yl)methyl)methanesulfonamide], for which, in test [1], the half-maximal inhibitory concentration (IC50) was less than 0.5 µM. The inhibition constant Ki on GCN2 kinase is less than 0.01 µM.
The matching figures for `CS(=O)(=O)N1CCC2(CCCN(c3cc(-c4cnc5ccc(C(F)F)nn45)ncn3)C2)C1` (stereo not drawn) [II-56, 7-(6-(6-(Difluoromethyl)imidazo[1,2-b]pyridazin-3-yl)pyrimidin-4-yl)-2-(methylsulfonyl)-2,7-diazaspiro[4.5]decane]: 0.5 to 5 µM and 0.01 to 1 µM.
Compound `CC1CN(c2cc(-c3cnc4ccc(C(F)F)nn34)ccn2)CC(CNS(C)(=O)=O)C1(F)F` (stereo not drawn) [II-57, N-((1-(4-(6-(Difluoromethyl)imidazo[1,2-b]pyridazin-3-yl)pyridin-2-yl)-4,4-difluoro-5-methylpiperidin-3-yl)methyl)methanesulfonamide] yielded an IC50 in test [1] of 0.5 to 5 µM. Besides, the Ki at GCN2 kinase is less than 0.01 µM.
In turn, `CC1CN(c2cc(-c3cnc4ccc(C(F)F)nn34)ccn2)CC(CNS(C)(=O)=O)C1(F)F` (stereo not drawn) [II-58, N-((1-(4-(6-(Difluoromethyl)imidazo[1,2-b]pyridazin-3-yl)pyridin-2-yl)-4,4-difluoro-5-methylpiperidin-3-yl)methyl)methanesulfonamide] showed an IC50 in test [1] of less than 0.5 µM. Moreover, the inhibition constant Ki at GCN2 kinase was less than 0.01 µM.
Regarding `CS(=O)(=O)NCC1CCCN(c2cc(-c3cnc4ccc(C(F)F)nn34)ncn2)C1` (stereo not drawn) [II-59, N-((1-(6-(6-(Difluoromethyl)imidazo[1,2-b]pyridazin-3-yl)pyrimidin-4-yl)piperidin-3-yl)methyl)methanesulfonamide], the half-maximal inhibitory concentration (IC50) in test [1] was less than 0.5 µM. The Ki on GCN2 kinase was less than 0.01 µM.
Compound `CNc1cc(N2CCCC(CNS(C)(=O)=O)C2)cc(-c2cnc3ccc(C(F)F)nn23)n1` (stereo not drawn) [II-60, N-((1-(2-(6-(Difluoromethyl)imidazo[1,2-b]pyridazin-3-yl)-6-(methylamino)pyridin-4-yl)piperidin-3-yl)methyl)methanesulfonamide] showed an IC50 in test [1] of less than 0.5 µM. Besides, on GCN2 kinase, the inhibition constant Ki is less than 0.01 µM.
In the case of `CS(=O)(=O)NCC1CCCN(c2cc(-c3cnc4ccc(C(F)F)nn34)cc(Cl)n2)C1` (stereo not drawn) [II-61, N-((1-(6-Chloro-4-(6-(difluoromethyl)imidazo[1,2-b]pyridazin-3-yl)pyridin-2-yl)piperidin-3-yl)methyl)methanesulfonamide], the concentration for half-maximal inhibition (IC50) in test [1] was in the range of 0.5 to 5 µM. Besides, the inhibitory constant (Ki) on GCN2 kinase was less than 0.01 µM.
Regarding `O=C1CN(c2cc(-c3cnc4ccc(C(F)F)nn34)ccn2)CCN1` [II-62, 4-(4-(6-(Difluoromethyl)imidazo[1,2-b]pyridazin-3-yl)pyridin-2-yl)piperazin-2-one], the IC50 in test [1] is more than 5 µM. The compound further yielded a Ki at GCN2 kinase of 0.01 to 1 µM.
The matching figures for `CS(=O)(=O)NCC1CCCN(c2cc(-c3cnc4ccc(C(F)F)nn34)cc(C(F)(F)F)n2)C1` (stereo not drawn) [II-63, N-((1-(4-(6-(Difluoromethyl)imidazo[1,2-b]pyridazin-3-yl)-6-(trifluoromethyl)pyridin-2-yl)piperidin-3-yl)methyl)methanesulfonamide]: more than 5 µM and less than 0.01 µM.
